The nature of data set [1]: Solubility in water at 25 deg. C. It is filed as physicochemical. Particulars: average of triplicate. From the text: (§1) The solubility in water is given as a model of polar solvents, while the octanol and chloroform are given as models for skin lipids.
Data set [2] can be described thus: Solubility in chloroform at 25 deg. C. (model of skin lipids). It is filed as physicochemical. Particulars: at 25 deg. C.; average of triplicate. The source says: (§2) In the examples, the solubilities of free zwitterion and enhanced solubilities of various salts thereof are reported in various degrees in the following solvents: water, ethanol, octanol, chloroform and human stratum corneum. Permeation rates are also shown for these zwitterionic compounds and enhanced fluxes of the salts thereof through materials including polyurethane. While such materials are impractical for transdermal devices for free zwitterions, these materials are practical for the transdermal delivery of salts of zwitterions. The solubility in water is given as a model of polar solvents, while the octanol and chloroform are given as models for skin lipids. The critical factor for inclusion of a salt within the invention is that relative to its non salt zwitterion parent compound, the salt form of the invention has a greater solubility in both polar and lipid skin models.
(§3) Average of values measured in triplicate.

Data set [3] is described as follows: Solubility in human stratum corneum. It is filed as physicochemical. The conditions noted are these: average of triplicate.
Text: as §2, §3

Data set [4] can be described thus: Solubility in ethanol at 25 deg. C. It is filed as physicochemical. The conditions noted are these: average of triplicate.
A short description of data set [5]: Permeation rate through human epidermis. It is filed as in vitro ADME.
Text: as §2, §3

Data set [6] is described as follows: Permeation rate through polyurethane. It is filed as physicochemical.
Text: as §2, §3

Data set [7] is described as follows: Solubility in octanol at 25 deg. C. (model of skin lipids). The conditions noted are these: average of triplicate. It is filed as physicochemical.
Text: as §1

The values below come from patent US5073539A, “Transdermal administration of zwitterionic drugs” (Ciba-Geigy Corporation, priority 1990, dated 1991).

Where a name gives a salt, the structure may show the parent alone.

The compound `NCC(CC(=O)O)c1ccc(Cl)cc1` (stereo not drawn) [Bac. hydrobromide] gave a Solubility in water in data set [1] of 351.9468 mg/mL. Moreover, the Solubility in chloroform in data set [2] turned out to be 0.0137 mg/mL. In data set [3], the “Solubility in human stratum corneum” value turned out to be 0.2922 mg/mL. In data set [4], this compound had a Solubility in ethanol of 129.5697 mg/mL. In addition, the “Permeation rate through human epidermis” value in data set [5] (average of triplicate) is 25.49 ug/cm 2/hr. In addition, in data set [5] (relative to free zwitterion), the “R.E. (relative enhancement) of permeation rate through human epidermis” value stood at 216.02. The “Permeation rate through polyurethane” value in data set [6] (average of triplicate) is on record as 738.9 ug/cm 2/hr. Moreover, the “R.E. (relative enhancement) of permeation rate through polyurethane” value in data set [6] (relative to free zwitterion) was found to be 138.89. In data set [7], this compound returned a Solubility in octanol of 0.47705 mg/mL.
